Patent US20080113983A1, “Nicotinic Acetylcholine Receptor Ligands” (AstraZeneca AB, priority 2004, published 2008)

Target: T1, α4 nAChR receptor (Rattus norvegicus, UniProt P09483+P12390)
T1 construct: from tissue; host or cells: rat cortical brain membranes
Assay: Radioligand ([125I]-IPH) binding to rat cortical membranes
Settings: saturation curves fitted to a one site model
Description: Assay for affinity at an α4 nAChR receptor by measuring the binding of [^3H]-(-)-nicotine binding to rat cortical membranes.
A procedure modified from Martino-Barrows and Kellar (Mol Pharm (1987) 31:169-174) may be used. Rat cortical brain membranes are prepared as described in the [^125I]α-BTX binding assay, except that a 500-12000×g membrane fraction is prepared. Membranes (30-150 μg) are incubated with 30-100 pM of the epibatidine analog [^125I]-IPH ((+/−)-exo-2-(2-iodo-5-pyridyl)-7-azabicyclo-[2,2,1]heptane) together with test compound in HB for 1 hour at room temperature with gentle shaking. Membranes may be recovered as described for the [^125I]α-BTX binding assay. Non-specific binding may be determined by 100 μM carbachol. Typically specific binding is about 84%.
Analysis of Binding Data Obtained in α7 nAChR or α4 nAChR receptor assays
IC50 values and pseudo Hill coefficients (nH) may be calculated using the non-linear curve fitting program ALLFIT (DeLean A, Munson P J and Rodbard D (1977) Am. J. Physiol., 235:E97-E102). […] Ki values may be estimated using the general Cheng-Prusoff equation:
Ki=[IC50 ]/((2+([ligand]/KD)^n)^1/n−1)
where a value of n=1 is used whenever nH<1.5 and a value of n=2 is used when nH>1.5. To account for variability, assays may be performed in triplicate and variability will typically be ±5%. Ki values may be determined using six to 11 drug concentrations.

T1 sequence (P12390 25-500): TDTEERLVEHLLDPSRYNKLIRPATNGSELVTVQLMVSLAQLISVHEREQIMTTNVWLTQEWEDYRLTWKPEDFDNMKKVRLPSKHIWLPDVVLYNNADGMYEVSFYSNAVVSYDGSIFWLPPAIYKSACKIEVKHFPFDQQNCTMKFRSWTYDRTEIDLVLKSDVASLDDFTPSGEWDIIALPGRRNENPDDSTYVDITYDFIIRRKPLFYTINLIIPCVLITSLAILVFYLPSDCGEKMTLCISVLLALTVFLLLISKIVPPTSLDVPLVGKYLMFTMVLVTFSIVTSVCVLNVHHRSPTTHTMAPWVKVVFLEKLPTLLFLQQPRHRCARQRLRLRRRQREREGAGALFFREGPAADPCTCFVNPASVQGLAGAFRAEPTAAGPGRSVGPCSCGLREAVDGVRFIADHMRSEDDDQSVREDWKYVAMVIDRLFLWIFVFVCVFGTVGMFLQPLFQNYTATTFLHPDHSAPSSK
T1 sequence (P09483 31-630): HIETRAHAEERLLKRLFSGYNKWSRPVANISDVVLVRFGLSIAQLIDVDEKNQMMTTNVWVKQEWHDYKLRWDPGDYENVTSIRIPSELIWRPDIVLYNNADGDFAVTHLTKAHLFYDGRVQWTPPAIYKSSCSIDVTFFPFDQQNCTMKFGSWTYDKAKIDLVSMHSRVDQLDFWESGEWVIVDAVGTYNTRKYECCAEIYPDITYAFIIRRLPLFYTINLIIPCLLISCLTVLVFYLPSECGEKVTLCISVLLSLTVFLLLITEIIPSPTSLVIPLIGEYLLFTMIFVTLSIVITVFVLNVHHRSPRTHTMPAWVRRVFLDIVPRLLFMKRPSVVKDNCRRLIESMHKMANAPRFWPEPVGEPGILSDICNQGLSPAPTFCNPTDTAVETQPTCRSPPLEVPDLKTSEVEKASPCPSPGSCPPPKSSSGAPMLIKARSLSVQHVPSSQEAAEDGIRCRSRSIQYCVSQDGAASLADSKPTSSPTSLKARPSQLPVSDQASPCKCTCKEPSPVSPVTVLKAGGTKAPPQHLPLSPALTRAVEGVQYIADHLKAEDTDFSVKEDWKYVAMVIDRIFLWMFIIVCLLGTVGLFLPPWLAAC

`Ic1ccc(C2CC3CCC2N3)cn1` (racemic) [[^125I]-IPH, (+/−)-exo-2-(2-iodo-5-pyridyl)-7-azabicyclo-[2,2,1]heptane] gave a Kd of 0.064 nM.
